# Experimental data from patent US8710246B2, “Substituted thiophene pentamers” (Biochromix Newco AB, priority 2008, dated 2014).
# “Also recorded” adds a separate entry of the source.
# Experiments:
# Aβ peptide 1-42 = target: T1, Aβ peptide 1-42 (Homo sapiens, UniProt P05067); experiment: In vitro fibrillation of Aβ peptide 1-42 followed by TEM; type: biochemical; settings: for fibrillation morphology by TEM: 20 μM Aβ 1-42, 37° C.
# T1 construct: Aβ peptide 1-42 was dissolved in hexafluoroisopropanol
# T1 sequence (P05067 672-713 limits assumed): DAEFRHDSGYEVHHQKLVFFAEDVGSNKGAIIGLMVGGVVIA
# Method: Aβ peptide 1-42 was dissolved in hexafluoroisopropanol to a concentration of 1 mg/mL and further diluted to 20 μM in Tris-HCl 5 mM, 75 mM NaCl. The inventive compounds F and G were added in concentrations from 10 to 100 μM and the samples, including references without the inventive compounds, were incubated at 37° C. to initiate fibrillation. After Oh, 20 h and 66 h aliquots were withdrawn, deposited on formvar-carbon coated TEM grids and negatively stained using uranylacetate. A Phillips CM200 run at 200 kV was used to study the progress of fibrillation in the different samples. […] (at Oh). […] These aggregates were covering most of the TEM grid and no smaller fibril or oligomer like structures could be seen. After 66 h of incubation no major change in morphology compared to the 20 h samples could be seen, sheets with separate visible fibrils were found at high density on the grid, of a typical morphology illustrated in FIG. 3.
# primary chicken neurons = experiment: Aβ1-42 induced lesions in primary chicken neurons, MTT viability assay; type: cell-based
# Method: T:I 1: p-HTAA, Mw=529 g/mol, diluted in vehicle from stock solution in PBS+1.33% DMSO (10 mg/ml).
# T:I 2: POWT-13, Mw=2782 g/mol, diluted in vehicle from stock solution in deionized water (40 mg/ml).
# Cell source: Telencephalon neurons from 8-day-old chicken embryos (Lohman Brown hybrid)
# Nutrition medium: DMEM with 4.5 g glucose/1, 5% Nu Serum, 0.01% gentamycin, 2 mM L-glutamine
# Group size: n=6 for each T.I. and R.I. concentration per experiment
# Lesion: 10 μM Aβ1-42 (pre-aggregated for 48 h) at DIV8 for 48 h
# Evaluation of the effects: MTT on DIV 10
# One-day-old fertilized eggs will be stored under appropriate conditions until start of breeding. On embryonic day 0 eggs will be transferred to the breeding incubator and under turning kept at 37.8° C. and 55% humidity until embryonic day eight. […]
# Viability of cultures will be determined with the MTT assay using a plate-reader (570 nm) as described e.g. in SOP MET004. […] Since this reaction is catalysed in living cells only this assay can be used for the quantification of cell viability. […] To estimate optical density, a plate-reader (Anthos HT II or pquant) is used at wavelength 570 nm. […]
# After 48 hours of incubation of T.I. and Aβ1-42 on cells (DIV10), viability of neurons will be analysed by the MTT assay.
# Aβ deposits = experiment: Long term in vivo effects on amyloid plaques in transgenic mice, cranial window, multiphoton spectroscopy; settings: tail vein injection, 10 mg/kg
# From the text: This long lasting binding to the plaques is advantageous for a long term therapeutic effect of the inventive compounds.
smiles,measurement,setting,value
O=C(O)Cc1cc(-c2cccs2)sc1-c1ccc(-c2sc(-c3cccs3)cc2CC(=O)O)s1 [Compound G],fibrillation morphology by TEM,"Aβ peptide 1-42; 10 μM compound, 20 h",no dense aggregates resembling those in the reference sample; also recorded: low density of oligomer like structures
same,fibrillation morphology by TEM,"Aβ peptide 1-42; 100 μM compound, 20 h",no dense aggregates resembling those in the reference sample; also recorded: low density of short branched fibrils with a very low contrast; also recorded: Short branched fibrils
same,fibrillation morphology by TEM,"Aβ peptide 1-42; 100 μM compound, 66 h",very few separate short proto-fibrils; also recorded: Short proto-fibrils
same,effect on the fibrillation of Aβ peptide 1-42,"Aβ peptide 1-42; overall conclusion, 20 h and 66 h",major effect
same,viability of neurons (MTT),"primary chicken neurons; test item added to Aβ1-42 during aggregation, then on cells 48 h, FIG. 12",better viability compared to 10 μM Aβ1-42 alone
same,viability of neurons (MTT),"primary chicken neurons; test item and pre-aggregated 10 μM Aβ1-42 applied on neurons simultaneously, 48 h, FIG. 11",better viability compared to 10 μM Aβ1-42 alone
same,binding to Aβ deposits in living mouse brain one week after injection,Aβ deposits; one week after injection,binding of the inventive compounds to AP deposits could still be observed; also recorded: bound to Aβ deposits in living mouse brain one week after injection
same,crossing of the blood brain barrier after intravenous injection,Aβ deposits; transgenic mice with AD-like pathology,readily cross the blood brain barrier
